# Measurements published in ChEMBL document CHEMBL1127122, “Neurotensin receptor binding and antinociceptive activity for lipophilic N-amido neurotensin(913) analogs” (Bioorg Med Chem Lett, 1993).
# Residues, ends and D or L forms follow the SMILES beside them. *: point of attachment. X1 = O=C(C(F)(F)C(F)(F)C(F)(F)C(F)(F)C(F)(F)C(F)(F)C(F)(F)F)*; Benzoyl(4-Ph) = O=C(c1ccc(-c2ccccc2)cc1)*; Benzoyl(4-tBu) = CC(C)(C)c1ccc(C(=O)*)cc1; Butanoyl(3,3-Me2) = CC(C)(C)CC(=O)*; X3 = O=C1NC2CSC(CCCCC(=O)*)C2N1; X2 = O=C(CC1CCC2CCCC21)*; X4 = O=C(CC1CC2CCC1C2)*
# Key:
# [1] = biological target: Neurotensin receptor type 1 (Rattus norvegicus, UniProt P20789); experiment: Binding affinity against rat neurotensin receptor.
# Neurotensin receptor type 1, sequence (P20789 whole entry): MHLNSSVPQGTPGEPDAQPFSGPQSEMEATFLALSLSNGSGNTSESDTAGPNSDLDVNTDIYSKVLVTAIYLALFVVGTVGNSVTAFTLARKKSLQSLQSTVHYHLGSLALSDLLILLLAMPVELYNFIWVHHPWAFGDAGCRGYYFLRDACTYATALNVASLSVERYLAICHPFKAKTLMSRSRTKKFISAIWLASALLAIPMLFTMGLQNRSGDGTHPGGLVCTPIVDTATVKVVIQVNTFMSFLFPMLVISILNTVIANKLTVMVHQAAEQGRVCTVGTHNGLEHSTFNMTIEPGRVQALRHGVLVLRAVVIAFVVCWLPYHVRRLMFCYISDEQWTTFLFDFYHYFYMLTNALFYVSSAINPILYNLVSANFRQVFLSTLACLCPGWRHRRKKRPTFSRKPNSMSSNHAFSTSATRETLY
# Mus musculus [2] = experiment: Analgesic activity in fasted male mice in phenylquinone writhing assay 10 min after i.c.v. administration.; assay type: functional
# Mus musculus [3] = experiment: Analgesic activity of i.v. administered compound in fasted male mice at 10 min. interval was determined using phenylquinone writhing assay; assay type: functional; settings: iv
# Mus musculus [4] = experiment: Analgesic activity in fasted male mice in phenylquinone writhing assay 5 min after i.c.v. administration.; assay type: functional
# Mus musculus [5] = experiment: Analgesic activity of i.v. administered compound in fasted male mice at 5 min. interval was determined using phenylquinone writhing assay; assay type: functional; settings: iv
# Mus musculus [6] = experiment: Analgesic activity in fasted male mice in phenylquinone writhing assay 40 min after i.c.v. administration.; assay type: functional
Compound,Ki [1] [nM],ED50 (Mus musculus [2]) [ug mouse-1],ED50 (Mus musculus [3]) [mg/kg],ED50 (Mus musculus [4]) [ug mouse-1],ED50 (Mus musculus [5]) [mg/kg],ED50 (Mus musculus [6]) [ug mouse-1]
CC[C@H](C)[C@H](NC(=O)[C@H](Cc1ccc(O)cc1)NC(=O)[C@@H]1CCCN1C(=O)[C@H](CCCCN)NC(=O)C(F)(F)C(F)(F)C(F)(F)C(F)(F)C(F)(F)C(F)(F)C(F)(F)F)C(=O)N[C@@H](CC(C)C)C(=O)O (X1-KPYIL-OH) [listing 1 of 2 here],2100,,,,,
CC[C@H](C)[C@H](NC(=O)[C@H](Cc1ccc(O)cc1)NC(=O)[C@@H]1CCCN1C(=O)[C@H](CCCCN)NC(=O)C(F)(F)C(F)(F)C(F)(F)C(F)(F)C(F)(F)C(F)(F)C(F)(F)F)C(=O)N[C@@H](CC(C)C)C(=O)O (X1-KPYIL-OH) [listing 2 of 2 here],,3.7,17,2.2,32,4.4
CC[C@H](C)[C@H](NC(=O)[C@H](Cc1ccc(O)cc1)NC(=O)[C@@H]1CCCN1C(=O)[C@H](CCCCN)NC(=O)CC1CCC2CCCC21)C(=O)N[C@@H](CC(C)C)C(=O)O (stereo partly specified) (X2-KPYIL-OH),540,0.41,15,0.1,12,2.5
CC[C@H](C)[C@H](NC(=O)[C@H](Cc1ccc(O)cc1)NC(=O)[C@@H]1CCCN1C(=O)[C@H](CCCCN)NC(=O)CCCCC1SCC2NC(=O)NC21)C(=O)N[C@@H](CC(C)C)C(=O)O (stereo partly specified) (X3-KPYIL-OH) [listing 1 of 2 here],290,,,,,
CC[C@H](C)[C@H](NC(=O)[C@H](Cc1ccc(O)cc1)NC(=O)[C@@H]1CCCN1C(=O)[C@H](CCCCN)NC(=O)CCCCC1SCC2NC(=O)NC21)C(=O)N[C@@H](CC(C)C)C(=O)O (stereo partly specified) (X3-KPYIL-OH) [listing 2 of 2 here],,2,≥ 81,0.86,> 81,8.3
CC[C@H](C)[C@H](NC(=O)[C@H](Cc1ccc(O)cc1)NC(=O)[C@@H]1CCCN1C(=O)[C@H](CCCCN)NC(=O)CC1CC2CCC1C2)C(=O)N[C@@H](CC(C)C)C(=O)O (stereo partly specified) (X4-KPYIL-OH),1000,0.29,19,0.018,24,2.7
CC[C@H](C)[C@H](NC(=O)[C@H](Cc1ccc(O)cc1)NC(=O)[C@@H]1CCCN1C(=O)[C@H](CCCCN)NC(=O)c1ccc(-c2ccccc2)cc1)C(=O)N[C@@H](CC(C)C)C(=O)O ({Benzoyl(4-Ph)}-KPYIL-OH) [listing 1 of 2 here],880,,,,,
CC[C@H](C)[C@H](NC(=O)[C@H](Cc1ccc(O)cc1)NC(=O)[C@@H]1CCCN1C(=O)[C@H](CCCCN)NC(=O)c1ccc(-c2ccccc2)cc1)C(=O)N[C@@H](CC(C)C)C(=O)O ({Benzoyl(4-Ph)}-KPYIL-OH) [listing 2 of 2 here],,2.8,13,1.7,< 27,50
CC[C@H](C)[C@H](NC(=O)[C@H](Cc1ccc(O)cc1)NC(=O)[C@@H]1CCCN1C(=O)[C@H](CCCCN)NC(=O)c1ccc(C(C)(C)C)cc1)C(=O)N[C@@H](CC(C)C)C(=O)O ({Benzoyl(4-tBu)}-KPYIL-OH) [listing 1 of 2 here],220,,,,,
CC[C@H](C)[C@H](NC(=O)[C@H](Cc1ccc(O)cc1)NC(=O)[C@@H]1CCCN1C(=O)[C@H](CCCCN)NC(=O)c1ccc(C(C)(C)C)cc1)C(=O)N[C@@H](CC(C)C)C(=O)O ({Benzoyl(4-tBu)}-KPYIL-OH) [listing 2 of 2 here],,0.088,6.6,0.075,12,0.32
"CC[C@H](C)[C@H](NC(=O)[C@H](Cc1ccc(O)cc1)NC(=O)[C@@H]1CCCN1C(=O)[C@H](CCCCN)NC(=O)CC(C)(C)C)C(=O)N[C@@H](CC(C)C)C(=O)O ({Butanoyl(3,3-Me2)}-KPYIL-OH) [listing 1 of 2 here]",680,,,,,
"CC[C@H](C)[C@H](NC(=O)[C@H](Cc1ccc(O)cc1)NC(=O)[C@@H]1CCCN1C(=O)[C@H](CCCCN)NC(=O)CC(C)(C)C)C(=O)N[C@@H](CC(C)C)C(=O)O ({Butanoyl(3,3-Me2)}-KPYIL-OH) [listing 2 of 2 here]",,0.1,4.9,0.095,6.2,1.2
Ac-KPYIL-OH [listing 1 of 2 here],2100,,,,,
Ac-KPYIL-OH [listing 2 of 2 here],,<50,,<50,,<50
H-KPYIL-OH,,10,> 81,8,> 81,26
